Data reported in the NIST ThermoML archive (doi:10.1021/je700260f).

Conditions: Liquid, Vibrating tube method

FC(C(F)(F)F)C(F)(F)F [1,1,1,2,3,3,3-heptafluoropropane]
Conditions | mass density [kg/m3]
293.15 K, 27338 kPa | 1533.2
293.15 K, 27374 kPa | 1533.1
293.15 K, 27410 kPa | 1533.2
293.15 K, 27435 kPa | 1533.3
293.15 K, 27481 kPa | 1533.5
293.15 K, 27522 kPa | 1533.7
293.15 K, 27553 kPa | 1533.7
293.15 K, 27589 kPa | 1533.9
293.15 K, 27619 kPa | 1533.9
293.15 K, 27655 kPa | 1534
293.15 K, 27692 kPa | 1534.2
293.15 K, 27728 kPa | 1534.3
293.15 K, 27759 kPa | 1534.5
293.15 K, 27800 kPa | 1534.5
293.15 K, 27841 kPa | 1534.6
293.15 K, 27871 kPa | 1534.8
293.15 K, 27912 kPa | 1534.9
293.15 K, 27953 kPa | 1534.9
293.15 K, 27984 kPa | 1535.1
293.15 K, 28026 kPa | 1535.1
293.15 K, 28067 kPa | 1535.5
293.15 K, 28097 kPa | 1535.4
293.15 K, 28144 kPa | 1535.6
293.15 K, 28185 kPa | 1535.7
293.15 K, 28216 kPa | 1535.9
293.15 K, 28258 kPa | 1536
293.15 K, 28300 kPa | 1536
293.15 K, 28327 kPa | 1536.1
293.15 K, 28369 kPa | 1536.4
293.15 K, 28411 kPa | 1536.5
293.15 K, 28442 kPa | 1536.7
293.15 K, 28484 kPa | 1536.7
293.15 K, 28520 kPa | 1536.8
293.15 K, 28556 kPa | 1536.8
293.15 K, 28588 kPa | 1537.1
293.15 K, 28619 kPa | 1537.1
293.15 K, 28667 kPa | 1537.3
293.15 K, 28709 kPa | 1537.3
293.15 K, 28735 kPa | 1537.5
293.15 K, 28783 kPa | 1537.7
293.15 K, 28823 kPa | 1537.8
293.15 K, 28855 kPa | 1537.9
293.15 K, 28908 kPa | 1538.1
293.15 K, 28956 kPa | 1538.2
293.15 K, 28983 kPa | 1538.2
293.15 K, 29030 kPa | 1538.3
293.15 K, 29072 kPa | 1538.5
293.15 K, 29104 kPa | 1538.5
293.15 K, 29147 kPa | 1538.8
293.15 K, 29179 kPa | 1538.8
293.15 K, 29229 kPa | 1539.1
293.15 K, 29256 kPa | 1539.1
293.15 K, 29289 kPa | 1539.1
293.15 K, 29337 kPa | 1539.3
293.15 K, 29385 kPa | 1539.4
293.15 K, 29417 kPa | 1539.6
293.15 K, 29460 kPa | 1539.7
293.15 K, 29497 kPa | 1539.7
293.15 K, 29528 kPa | 1540
293.15 K, 29566 kPa | 1540
293.15 K, 29603 kPa | 1540.2
293.15 K, 29637 kPa | 1540.3
293.15 K, 29675 kPa | 1540.4
293.15 K, 29718 kPa | 1540.6
293.15 K, 29751 kPa | 1540.4
293.15 K, 29782 kPa | 1540.6
293.15 K, 29810 kPa | 1540.8
293.15 K, 29843 kPa | 1540.9
293.15 K, 29870 kPa | 1540.9
293.15 K, 29903 kPa | 1541.1
293.15 K, 29936 kPa | 1541.1
293.15 K, 29969 kPa | 1541.3
293.15 K, 29997 kPa | 1541.2
293.15 K, 30026 kPa | 1541.4
293.15 K, 30054 kPa | 1541.5
293.15 K, 30083 kPa | 1541.6
293.15 K, 30120 kPa | 1541.8
293.15 K, 30153 kPa | 1541.8
293.15 K, 30181 kPa | 1541.9
293.15 K, 30215 kPa | 1542
293.15 K, 30248 kPa | 1542.1
293.15 K, 30287 kPa | 1542.3
293.15 K, 30316 kPa | 1542.4
293.15 K, 30350 kPa | 1542.5
293.15 K, 30389 kPa | 1542.5
293.15 K, 30423 kPa | 1542.7
293.15 K, 30456 kPa | 1542.8
293.15 K, 30493 kPa | 1542.8
293.15 K, 30522 kPa | 1542.9
293.15 K, 30560 kPa | 1543.2
293.15 K, 30598 kPa | 1543.1
293.15 K, 30626 kPa | 1543.2
293.15 K, 30669 kPa | 1543.4
293.15 K, 30713 kPa | 1543.5
293.15 K, 30742 kPa | 1543.5
293.15 K, 30776 kPa | 1543.6
293.15 K, 30815 kPa | 1543.8
293.15 K, 30853 kPa | 1543.9
293.15 K, 30887 kPa | 1543.9
293.15 K, 30920 kPa | 1544.1
293.15 K, 30958 kPa | 1544.3
293.15 K, 30982 kPa | 1544.4
293.15 K, 31020 kPa | 1544.4
293.15 K, 31063 kPa | 1544.6
293.15 K, 31092 kPa | 1544.7
293.15 K, 31136 kPa | 1544.7
293.15 K, 31164 kPa | 1544.7
293.15 K, 31189 kPa | 1544.9
293.15 K, 31232 kPa | 1545.1
293.15 K, 31270 kPa | 1545.2
293.15 K, 31299 kPa | 1545.2
293.15 K, 31327 kPa | 1545.4
293.15 K, 31356 kPa | 1545.3
293.15 K, 31400 kPa | 1545.5
293.15 K, 31438 kPa | 1545.7
293.15 K, 31468 kPa | 1545.7
293.15 K, 31506 kPa | 1545.8
293.15 K, 31537 kPa | 1546
293.15 K, 31563 kPa | 1546.1
293.15 K, 31593 kPa | 1546.1
293.15 K, 31636 kPa | 1546.3
293.15 K, 31669 kPa | 1546.4
293.15 K, 31698 kPa | 1546.4
293.15 K, 31742 kPa | 1546.6
293.15 K, 31786 kPa | 1546.7
293.15 K, 31815 kPa | 1546.8
293.15 K, 31854 kPa | 1546.8
293.15 K, 31882 kPa | 1547
293.15 K, 31919 kPa | 1547.1
293.15 K, 31954 kPa | 1547.1
293.15 K, 31986 kPa | 1547.3
293.15 K, 32022 kPa | 1547.3
293.15 K, 32055 kPa | 1547.6
293.15 K, 32096 kPa | 1547.7
293.15 K, 32136 kPa | 1547.8
293.15 K, 32163 kPa | 1547.7
293.15 K, 32205 kPa | 1548
293.15 K, 32245 kPa | 1548.1
293.15 K, 32272 kPa | 1548.1
293.15 K, 32309 kPa | 1548.2
293.15 K, 32338 kPa | 1548.3
293.15 K, 32381 kPa | 1548.3
293.15 K, 32418 kPa | 1548.5
293.15 K, 32447 kPa | 1548.7
293.15 K, 32494 kPa | 1548.7
293.15 K, 32531 kPa | 1548.9
293.15 K, 32565 kPa | 1548.9
293.15 K, 32598 kPa | 1549
293.15 K, 32635 kPa | 1549.1
293.15 K, 32668 kPa | 1549.3
293.15 K, 32711 kPa | 1549.4
293.15 K, 33629 kPa | 1552.1
293.15 K, 33659 kPa | 1552.1
293.15 K, 33704 kPa | 1552.3
293.15 K, 33734 kPa | 1552.3
293.15 K, 33769 kPa | 1552.5
293.15 K, 33809 kPa | 1552.5
293.15 K, 33844 kPa | 1552.5
293.15 K, 33879 kPa | 1552.6
293.15 K, 33925 kPa | 1552.9
293.15 K, 33976 kPa | 1553.1
293.15 K, 34008 kPa | 1553
293.15 K, 34053 kPa | 1553.2
293.15 K, 34100 kPa | 1553.3
293.15 K, 34131 kPa | 1553.5
293.15 K, 34173 kPa | 1553.5
293.15 K, 34220 kPa | 1553.9
293.15 K, 34257 kPa | 1553.9
293.15 K, 34293 kPa | 1553.8
293.15 K, 34336 kPa | 1554
293.15 K, 34374 kPa | 1554.1
293.15 K, 34415 kPa | 1554.3
293.15 K, 34442 kPa | 1554.3
293.15 K, 34464 kPa | 1554.4
293.15 K, 34489 kPa | 1554.4
293.15 K, 34511 kPa | 1554.7
293.15 K, 34523 kPa | 1554.6
293.15 K, 34537 kPa | 1554.6
293.15 K, 34546 kPa | 1554.6
303.14 K, 1230 kPa | 1372.6
303.14 K, 7245 kPa | 1416.2
303.14 K, 7273 kPa | 1416.3
303.14 K, 7298 kPa | 1416.5
303.14 K, 7327 kPa | 1416.7
303.14 K, 7356 kPa | 1416.8
303.14 K, 7384 kPa | 1417.1
303.14 K, 7413 kPa | 1417.1
303.14 K, 10852 kPa | 1437.1
303.14 K, 10890 kPa | 1437.1
303.14 K, 10918 kPa | 1437.3
303.14 K, 10989 kPa | 1437.6
303.14 K, 12092 kPa | 1443.4
303.14 K, 12132 kPa | 1443.6
303.14 K, 12163 kPa | 1443.8
303.14 K, 12207 kPa | 1443.9
303.14 K, 12242 kPa | 1444.1
303.14 K, 12284 kPa | 1444.2
303.14 K, 12330 kPa | 1444.6
303.14 K, 12373 kPa | 1444.7
303.14 K, 14583 kPa | 1455.6
303.14 K, 14620 kPa | 1455.8
303.14 K, 14653 kPa | 1455.9
303.14 K, 14687 kPa | 1456
303.14 K, 14726 kPa | 1456.4
303.14 K, 14755 kPa | 1456.5
